Here are results for 9 molecules from patent US7888380B2, “1,2,4-Triazolylaminoaryl (heteroaryl) sulfonamide derivatives” (Janssen Pharmaceutica, N.V., priority 2004, dated 2011).

The structures appear in SMILES notation. Where a name gives a salt, the structure may show the parent alone.

Test [1] concerns HeLa cervical adenocarcinoma. The test is described as follows: Inhibition of cell proliferation (14C-thymidine incorporation), HeLa. Format: cell-based. The conditions noted are these: Homo sapiens. The protocol: (§1) The ability of a test compound to inhibit the proliferation of cell growth was determined by measuring incorporation of ^14C-labelled thymidine into newly synthesized DNA within the cells. This method was used on cell lines derived from carcinomas originating from several tissues such as HeLa cervical adenocarcinoma (American Type Culture Collection (ATCC), Virginia, Cat. #CCL-2), A375 malignant melanoma (ATCC CRL-1619), and HCT-116 colon carcinoma (CCL-247). In this way the effect of a compound on cell growth of cells with many different phenotypes can be determined. Cells were trypsinized and counted and 3000-8000 cells were added to each well of a 96-well CytoStar tissue culture treated scintillating microplate (Amersham #RPNQ0160) in complete medium in a volume of 100 μl. Cells were incubated for 24 hours in complete medium at 37° C. in an atmosphere containing 5% CO2.
(§2) Next, 1 μl of test compound in 100% DMSO was added to the wells of the plate. DMSO only was added to control wells. Cells were incubated for 24 more hours in complete medium at 37° C. in an atmosphere containing 5% CO2. Methyl ^14C-thymidine 56 mCi/mmol (NEN #NEC568 or Amersham #CFA532) was diluted in complete medium and 0.2 uCi/well was added to each well of the CytoStar plate in a volume of 20 ul. The plate was incubated for 24 hours at 37° C. plus 5% CO2 in drug plus ^14C-thymidine. The contents of the plate were discarded into a ^14C radioactive waste container by inverting the plate and the plate was washed twice with 200 μl PBS.
(§3) 200 μl of PBS was added to each well. The top of the plate was sealed with a transparent plate sealer and a white plate backing sealer (Packard #6005199) was applied to the bottom of the plate. The degree of methyl ^14C-thymidine incorporation was quantified on a Packard Top Count.

The test system of test [2] is HCT-116 colon carcinoma. The test is described as follows: Inhibition of cell proliferation (14C-thymidine incorporation), HCT116. Format: cell-based, human. The following applies: Homo sapiens, HCT-116. The protocol:
as §1, §2, §3

The test system of test [3] is A375 malignant melanoma. Nature of the test: Inhibition of cell proliferation (14C-thymidine incorporation), A375. Format: cell-based, human. The conditions noted are these: Homo sapiens, A-375. The protocol:
as §1, §2, §3

Test [4] addresses CDK2:Cyclin-E (Homo sapiens, UniProt P24941). The test is described as follows: CDK2 Screening Assay (33P-ATP FlashPlate). Format: biochemical. The conditions noted are these: 10 μM ATP; >10 or >100 = less than 50% inhibition at highest concentration tested. Here is the method:
A kinase reaction mixture was prepared containing 50 mM Tris-HCl pH=8, 10 mM MgCl2, 0.1 mM Na3PO4, 1 mM DTT, 10 μM ATP, 0.025 μM biotinylated histone-H1 peptide substrate and 0.2 μCuries per well ^33P-γ-ATP (2000-3000 Ci/mmol). 70 μL of the kinase reaction mixture was dispensed into the well of a streptavidin coated FlashPlate™ (Cat. # SMP103, NEN, Boston, Mass.). Then 1 μL of test compound stock in 100% DMSO was added to the wells resulting in a final concentration of 1% DMSO in the reaction with a 100 μl final reaction volume. Next, CDK2:Cyclin-E protein was diluted in 50 mM Tris-HCl pH=8.0, 0.1% BSA at a concentration of 1 ng per μL and 30 μL (30 ng enzyme per test well) was added to each well to initiate the reaction. The reaction was incubated for one hour at 30° C. At the end of the 1 h incubation, the reaction was terminated by aspirating the mixture from the plate and washing the wells twice with PBS containing 100 mM EDTA. The histone-H1 biotinylated peptide substrate became immobilized on the Flashplate™ and the incorporation of ^33P-γ-ATP was measured by reading the plate on a scintillation counter. Inhibition of the enzymatic activity of CDK2 was measured by observing a reduced amount of ^33P-γ-ATP incorporated into the immobilized peptide. […]

Test [5] deals with T1, CDK1:Cyclin-B (Homo sapiens, UniProt P06493).
T1 construct: purchased New England Biolabs, Beverly, Mass; 6020; host or cells: insect cells
T1 sequence (P06493 whole entry): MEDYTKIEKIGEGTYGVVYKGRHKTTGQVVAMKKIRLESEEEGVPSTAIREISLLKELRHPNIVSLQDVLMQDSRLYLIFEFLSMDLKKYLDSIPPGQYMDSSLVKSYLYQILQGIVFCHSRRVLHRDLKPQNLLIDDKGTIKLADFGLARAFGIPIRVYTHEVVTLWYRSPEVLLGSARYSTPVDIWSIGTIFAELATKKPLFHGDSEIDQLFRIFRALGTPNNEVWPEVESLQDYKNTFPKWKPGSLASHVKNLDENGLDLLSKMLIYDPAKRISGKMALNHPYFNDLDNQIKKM
T1 sequence (P14635 whole entry partner): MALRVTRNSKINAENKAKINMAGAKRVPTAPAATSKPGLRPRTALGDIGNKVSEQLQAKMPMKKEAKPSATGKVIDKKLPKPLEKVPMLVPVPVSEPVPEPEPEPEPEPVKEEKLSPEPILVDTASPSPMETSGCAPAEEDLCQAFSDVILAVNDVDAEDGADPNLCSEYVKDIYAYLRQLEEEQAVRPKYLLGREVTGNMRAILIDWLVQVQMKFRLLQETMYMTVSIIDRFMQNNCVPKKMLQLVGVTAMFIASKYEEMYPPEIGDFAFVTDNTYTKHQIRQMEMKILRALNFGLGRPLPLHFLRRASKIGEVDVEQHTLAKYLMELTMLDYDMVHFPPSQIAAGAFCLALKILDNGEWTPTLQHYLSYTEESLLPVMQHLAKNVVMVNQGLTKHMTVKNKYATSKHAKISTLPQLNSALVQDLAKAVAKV
Nature of the test: CDK1 Screening Assay (33P-ATP FlashPlate). Format: biochemical. The conditions noted are these: 10 μM ATP; >10 or >100 = less than 50% inhibition at highest concentration tested. Here is the method: A kinase reaction mixture was prepared containing 50 mM Tris-HCl pH=8, 10 mM MgCl2, 0.1 mM Na3PO4, 1 mM DTT, 10 μM ATP, 0.025 μM biotinylated histone-H1 peptide substrate and 0.2 μCuries per well ^33P-γ-ATP (2000-3000 Ci/mmol). 70 μL of the kinase reaction mixture was dispensed into each well of a streptavidin coated FlashPlate™ (Cat. # SMP103, NEN, Boston, Mass.). Then 1 μL of test compound stock in 100% DMSO was added to the wells resulting in a final concentration of 1% DMSO in the reaction with a 100 μl final reaction volume.
Next, CDK1:Cyclin-B protein was diluted in 50 mM Tris-HCl pH=8.0, 0.1% BSA at a concentration of 1 ng per μL and 30 μL (30 ng enzyme per test well) was added to each well to initiate the reaction. The reaction was incubated for one hour at 30° C. At the end of the 1 h incubation, the reaction was terminated by aspirating the mixture from the plate and washing the wells twice with PBS containing 100 mM EDTA. The histone-H1 biotinylated peptide substrate became immobilized on the Flashplate™ and the incorporation of ^33P-γ-ATP was measured by reading the plate on a scintillation counter. Inhibition of the enzymatic activity of CDK1 was measured by observing a reduced amount of ^33P-γ-ATP incorporated into the immobilized peptide.
(§4) VEGF-R (vascular endothelial growth factor receptor-2) is a fusion protein containing a polyhistidine tag at the N-terminus followed by amino acids 786-1343 of the rat VEGF-R2 kinase domain (GenBank Accession #U93306). CDK1 (cyclin dependent kinase 1) was isolated from insect cells expressing both the human CDK1 catalytic subunit and its positive regulatory subunit cyclin B (New England Biolabs, Beverly, Mass., Cat. # 6020). CDK2 in complex with cyclin A is commercially available (Upstate Biotech, Lake Placid, N.Y.). The HER2 (human epidermal growth factor receptor-2) construct contains a polyhistidine tag at the N-terminus followed by 24 additional amino acids and begins at amino acid 676 followed by the remainder of the HER2 cytoplasmic domain.

The target of test [6] is T2, HER2 (Homo sapiens, UniProt P04626).
T2 construct: polyhistidine (N)
T2 sequence (P04626 676-1255 limits assumed): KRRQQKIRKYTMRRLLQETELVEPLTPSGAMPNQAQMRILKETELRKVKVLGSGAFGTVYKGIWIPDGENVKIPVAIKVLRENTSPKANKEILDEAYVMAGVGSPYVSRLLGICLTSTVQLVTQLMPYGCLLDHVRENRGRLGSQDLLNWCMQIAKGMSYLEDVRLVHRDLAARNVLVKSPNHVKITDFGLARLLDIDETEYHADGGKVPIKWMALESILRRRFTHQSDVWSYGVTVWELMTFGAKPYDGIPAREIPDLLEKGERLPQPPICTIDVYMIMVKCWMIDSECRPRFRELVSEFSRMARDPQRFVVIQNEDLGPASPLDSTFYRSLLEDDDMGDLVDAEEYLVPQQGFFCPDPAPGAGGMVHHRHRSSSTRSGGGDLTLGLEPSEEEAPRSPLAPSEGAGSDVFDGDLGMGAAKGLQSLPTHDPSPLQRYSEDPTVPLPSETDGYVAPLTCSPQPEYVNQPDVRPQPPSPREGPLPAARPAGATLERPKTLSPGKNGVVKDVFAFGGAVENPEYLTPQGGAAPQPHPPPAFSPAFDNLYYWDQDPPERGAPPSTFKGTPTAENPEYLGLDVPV
Nature of the test: HER2 Kinase Screening Assay. The format is biochemical. The following applies: 10 μM ATP; >10 or >100 = less than 50% inhibition at highest concentration tested. The protocol:
The HER2 kinase assay was carried out as described above for the VEGF-R kinase assay except that the enzyme was replaced with a human epidermal growth factor receptor-2 (HER2) construct contains a polyhistidine tag at the N-terminus followed by 24 additional amino acids and begins at amino acid 676 (Accession #M11730) followed by the remainder of the HER2 cytoplasmic domain.
as §4

Take `Nc1nc(Nc2ccc(S(=O)(=O)NC(=O)CCCC(=O)O)cc2)nn1C(=O)c1c(F)cccc1F` [Compound 11, 5-{4-[5-amino-1-(2,6-difluoro-benzoyl)-1H-[1,2,4]triazol-3-ylamino]-benzenesulfonylamino}-5-oxo-pentanoic acid]: the IC50 in test [1] is > 100 µM; in test [2], > 100 µM; in test [3] it was > 100 µM; in test [4], 1.53 µM; in test [5], 12.4 µM; in test [6], > 100 µM.

Consider `Nc1nc(Nc2ccc(S(=O)(=O)NC(=O)COCCOCCOCC(=O)O)cc2)nn1C(=O)c1c(F)cccc1F` [Compound 12, {2-[2-(2-{4-[5-amino-1-(2,6-difluoro-benzoyl)-1H-[1,2,4]triazol-3-ylamino]-benzenesulfonylamino}-2-oxo-ethoxy)-ethoxy]-ethoxy}-acetic acid.2TFA salt], for which the IC50 in test [1] was 30.8 µM; in test [2], > 10 µM; in test [3] it was > 10 µM; in test [4] it was 0.08 µM; in test [5], 0.76 µM; in test [6], > 100 µM.

For the molecule `Nc1nc(Nc2ccc(S(=O)(=O)NC(=O)[C@@H](N)CO)cc2)nn1C(=O)c1c(F)cccc1F` [Compound 13, 4-[5-amino-1-(2,6-difluoro-benzoyl)-1H-[1,2,4]triazol-3-ylamino]-N—((S)-2-amino-3-hydroxy-propionyl)-benzenesulfonamide], the IC50 in test [1] was 4.02 µM; in test [2], 71.2 µM; in test [3], > 10 µM; in test [4], 0.14 µM; in test [5], 1.41 µM; in test [6], ≥ 10 µM.

As to `C[C@@H](N)C(=O)NS(=O)(=O)c1ccc(Nc2nc(N)n(C(=O)c3c(F)cccc3F)n2)cc1` [Compound 14, 4-[5-amino-1-(2,6-difluoro-benzoyl)-1H-[1,2,4]triazol-3-ylamino]-N—((R)-2-amino-propionyl)-benzenesulfonamide], the IC50 in test [1] is 1.96 µM; in test [2], 38.5 µM; in test [3], 71.1 µM; in test [4], 0.06 µM; in test [5], 0.74 µM; in test [6], ≥ 10 µM.

With `C[C@H](N)C(=O)N[C@@H](C)C(=O)NS(=O)(=O)c1ccc(Nc2nc(N)n(C(=O)c3c(F)cccc3F)n2)cc1.O=C(O)C(F)(F)F.O=C(O)C(F)(F)F.O=C(O)C(F)(F)F` [Compound 15, (S)-2-amino-N—((S)-2-{4-[5-amino-1-(2,6-difluoro-benzoyl)-1H-[1,2,4]triazol-3-ylamino]-benzenesulfonylamino}-1-methyl-2-oxo-ethyl)-propionamide 3 TFA salt], the half-maximal inhibitory concentration (IC50) in test [1] is 1.04 µM; in test [2], 20.8 µM; in test [3], 12.1 µM; in test [4], 0.1 µM; in test [5], 1.36 µM; in test [6] it was ≥ 10 µM.

With `Nc1nc(Nc2ccc(S(=O)(=O)NC(=O)[C@@H]3CCCN3)cc2)nn1C(=O)c1c(F)cccc1F` [Compound 16, 4-[5-amino-1-(2,6-difluoro-benzoyl)-1H-[1,2,4]triazol-3-ylamino]-N—((S)-pyrrolidine-2-carbonyl)-benzenesulfonamide], the IC50 in test [1] turned out to be 10.2 µM; in test [2], 3.94 µM; in test [3], 26.8 µM; in test [4], 0.03 µM; in test [5] it was 0.23 µM; in test [6] it was 50 µM.

On to `Nc1nc(Nc2ccc(S(=O)(=O)NC(=O)[C@@H](N)CC(=O)O)cc2)nn1C(=O)c1c(F)cccc1F` [Compound 17, (S)-3-amino-4-{4-[5-amino-1-(2,6-difluoro-benzoyl)-1H-[1,2,4]triazol-3-ylamino]-benzenesulfonylamino}-4-oxo-butyric acid], for which the IC50 in test [1] was 58.3 µM; in test [2] it was 28.4 µM; in test [3] it was > 100 µM; in test [4], 0.09 µM; in test [5], 0.98 µM; in test [6], 20 µM.

For the molecule `CCCCC(=O)NS(=O)(=O)c1ccc(Nc2nc(N)n(C(=O)c3c(F)cccc3F)n2)cc1` [Compound 18, 4-[5-amino-1-(2,6-difluoro-benzoyl)-1H-[1,2,4]triazol-3-ylamino]-N-pentanoyl-benzenesulfonamide], the IC50 in test [1] was 81.2 µM; in test [2], > 100 µM; in test [3], > 100 µM; in test [4], 0.47 µM; in test [5], 1.93 µM; in test [6], 5 µM.

As to `CCCC(=O)NS(=O)(=O)c1ccc(Nc2nc(N)n(C(=O)c3c(F)cccc3F)n2)cc1` [Compound 19, 4-[5-amino-1-(2,6-difluoro-benzoyl)-1H-[1,2,4]triazol-3-ylamino]-N-butyryl-benzenesulfonamide], the IC50 in test [1] is 6.89 µM; in test [2], 11.6 µM; in test [3], 24.1 µM; in test [4] it was 0.05 µM; in test [5], 0.28 µM; in test [6], 5 µM.
